Results reported in ChEMBL document CHEMBL4819001, “Discovery of tetrahydroquinolines and benzomorpholines as novel potent RORγt agonists” (Eur J Med Chem, 2021).

Experiments:
[1] = molecular target: T1, Nuclear receptor ROR-gamma (Homo sapiens, UniProt P51449); assay: Agonist activity at human RORgammat LBD expressed in HEK293T cells assessed increase in Gal4 reporter gene transcription measured after 16 to 20 hrs by luciferase reporter gene assay; assay type: cell-based
T1 sequence (P51449 whole entry): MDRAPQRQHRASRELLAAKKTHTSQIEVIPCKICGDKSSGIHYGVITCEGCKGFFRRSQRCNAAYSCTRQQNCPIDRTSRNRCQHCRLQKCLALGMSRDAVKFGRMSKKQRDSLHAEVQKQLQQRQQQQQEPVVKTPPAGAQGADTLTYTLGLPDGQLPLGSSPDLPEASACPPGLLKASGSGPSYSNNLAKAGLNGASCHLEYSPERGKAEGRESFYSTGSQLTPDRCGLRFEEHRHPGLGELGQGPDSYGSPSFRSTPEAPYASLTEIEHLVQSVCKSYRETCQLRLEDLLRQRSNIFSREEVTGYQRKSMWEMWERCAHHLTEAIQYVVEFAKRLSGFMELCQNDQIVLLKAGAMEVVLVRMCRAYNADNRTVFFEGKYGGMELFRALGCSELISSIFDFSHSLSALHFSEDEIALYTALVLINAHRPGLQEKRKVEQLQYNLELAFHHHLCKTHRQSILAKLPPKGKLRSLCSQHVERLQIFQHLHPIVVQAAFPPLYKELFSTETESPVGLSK

[2] = molecular target: T1, Nuclear receptor ROR-gamma; assay: Agonist activity at APC-labelled RORgammat (unknown origin) assessed as biotinylated SRC recruitment measured after 1 hr by dual FRET assay
[3] = molecular target: T2, Nuclear receptor ROR-gamma (Mus musculus) (UniProt P51450); assay: Agonist activity at RORgammat in mouse CD4+ Th17 cells assessed as promotion of IL17 production at 30 nM measured after 4 days by intracellular staining based flow cytometry; assay type: cell-based; conditions: filed as agonist, time 4.0 day
T2 sequence (whole entry): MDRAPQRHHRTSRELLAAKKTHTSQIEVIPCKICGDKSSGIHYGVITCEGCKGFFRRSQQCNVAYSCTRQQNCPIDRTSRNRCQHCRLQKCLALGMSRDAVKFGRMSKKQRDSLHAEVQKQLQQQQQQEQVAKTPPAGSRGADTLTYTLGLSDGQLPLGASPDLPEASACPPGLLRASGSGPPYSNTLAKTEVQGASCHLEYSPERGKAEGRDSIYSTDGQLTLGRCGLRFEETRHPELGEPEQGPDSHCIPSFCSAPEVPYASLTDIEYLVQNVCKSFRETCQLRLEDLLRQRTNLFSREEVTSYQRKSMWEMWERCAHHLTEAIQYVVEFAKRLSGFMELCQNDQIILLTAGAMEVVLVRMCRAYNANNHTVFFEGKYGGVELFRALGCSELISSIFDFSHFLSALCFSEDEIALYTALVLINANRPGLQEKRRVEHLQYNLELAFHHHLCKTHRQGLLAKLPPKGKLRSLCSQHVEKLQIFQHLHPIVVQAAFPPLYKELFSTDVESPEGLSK

[4] = molecular target: T2, Nuclear receptor ROR-gamma (Mus musculus); assay: Agonist activity at RORgammat in mouse CD4+ Th17 cells assessed as promotion of IL17 production at 300 nM measured after 4 days by intracellular staining based flow cytometry; assay type: cell-based; conditions: filed as agonist, time 4.0 day
[5] = molecular target: T1, Nuclear receptor ROR-gamma; assay: Inverse agonist activity at human RORgammat LBD expressed in HEK293T cells assessed inhibition of Gal4 reporter gene transcription measured after 16 to 20 hrs by luciferase reporter gene assay; assay type: cell-based
[6] = molecular target: T3, Nuclear receptor ROR-gamma (Homo sapiens) (UniProt P51449); assay: Inverse agonist activity at human RORgammat LBD expressed in HEK293T cells assessed inhibition of Gal4 reporter gene transcription measured after 16 to 20 hrs by luciferase reporter gene assay relative to control; assay type: cell-based; conditions: filed as inverse agonist, time 16-20 hrs
T3 sequence (whole entry): T1 sequence (P51449 whole entry)

[7] = molecular target: T1, Nuclear receptor ROR-gamma; assay: Inverse agonist activity at APC-labelled RORgammat (unknown origin) assessed as inhibition of biotinylated SRC recruitment measured after 1 hr by dual FRET assay

Structure (SMILES)	EC50 [2] [nM]	also measured
CCS(=O)(=O)c1ccc(CNC(=O)c2ccc(CCN3CCCc4ccc(CC(C)C)cc43)cc2)nc1	8.9	EC50 [1]: 242 nM; Activity [3]: 56.3%; Activity [4]: 104%
CCS(=O)(=O)c1ccc(CC(=O)Nc2ccc(CCN3CCCc4ccc(OC5CCC5)cc43)cc2)cc1	15.6	–
CCS(=O)(=O)c1ccc(CNC(=O)c2ccc(CCN3CCCc4ccc(OC(C)C)cc43)cc2)nc1	8.9	–
CCS(=O)(=O)c1ccc(CNC(=O)Nc2ccc(CCN3CCCc4ccc(CC(C)C)cc43)cc2)cc1	25.9	–
CCS(=O)(=O)c1ccc(CC(=O)Nc2ccc(CC(=O)N3CCCc4ccc(CC(C)C)cc43)cc2)cc1	–	IC50 [5]: 151 nM; Imax [6]: 101%; IC50 [7]: 31.5 nM
CCS(=O)(=O)c1ccc(CC(=O)Nc2ccc(CCN3CCCc4ccc(CC(C)(C)C)cc43)cc2)cc1	30.3	–
CCS(=O)(=O)c1ccc(CNC(=O)c2ccc(CCN3CCCc4ccc(OC5CCC5)cc43)cc2)nc1	12.2	–
CCS(=O)(=O)c1ccc(CC(=O)Nc2ccc(CCN3CCCc4ccc(F)cc43)cc2)cc1	11.5	–
CCS(=O)(=O)c1ccc(CC(=O)Nc2ccc(CCN3CCCc4ccccc43)cc2)cc1	21.5	–
CCS(=O)(=O)c1ccc(CC(=O)Nc2ccc(CCN3CCCc4ccc(C(C)C)cc43)cc2)cc1	22.1	–
CS(=O)(=O)c1ccc(CC(=O)Nc2ccc(CCN3CCOc4ccc(C(F)(C(F)(F)F)C(F)(F)F)cc43)cc2)cc1	46	–
CCS(=O)(=O)c1ccc(CC(=O)Nc2ccc(CCN3CCCc4ccc(C)cc43)cc2)cc1	16.7	–
CCS(=O)(=O)c1ccc(CC(=O)Nc2ccc(CCN3CCCc4ccc(CC5CC5)cc43)cc2)cc1	12.8	–
CCS(=O)(=O)c1ccc(C(CO)NC(=O)c2ccc(CCN3CCCc4ccc(CC(C)C)cc43)cc2)cc1 (centres undefined)	20.9	–
CCS(=O)(=O)c1ccc(CC(=O)Nc2ccc(CCN3CCCc4ccc(CC(C)C)cc43)c(F)c2)cc1	13	–
CS(=O)(=O)c1ccc(CC(=O)Nc2ccc(CCN3CCOc4ccc(C(O)(C(F)(F)F)C(F)(F)F)cc43)cc2)cc1	–	IC50 [7]: 14.6 nM

Second part, led by results:

EC50 [2] [nM]	Structure (SMILES)	also measured
7.1	CCS(=O)(=O)c1ccc(CNC(=O)c2ccc(CCN3CCOc4ccc(CC(C)C)cc43)cc2)nc1	–
7.3	CCS(=O)(=O)c1ccc(CC(=O)Nc2ccc(CCN3CCOc4ccc(OC(C)C)cc43)cc2)cc1	–
4.4	CC(Oc1ccc2c(c1)N(CCc1ccc(NC(=O)Cc3ccc(S(C)(=O)=O)cc3)cc1)CCO2)C(F)(F)F (centres undefined)	–
4.4	CC(C)Oc1ccc2c(c1)N(CCc1ccc(NC(=O)Cc3ccc(S(C)(=O)=O)cc3)cc1)CCO2	–
7.7	CCS(=O)(=O)c1ccc(CNC(=O)c2ccc(CCN3CCCc4ccc(OC5COC5)cc43)cc2)nc1	–
7.5	CC(C)Oc1ccc2c(c1)N(CCc1ccc(C(=O)NCc3ccc(S(C)(=O)=O)cn3)cc1)CCO2	EC50 [1]: 107 nM; Activity [3]: 45.2%; Activity [4]: 59.4%
4.6	CCS(=O)(=O)c1ccc(CNC(=O)c2ccc(CCN3CCOc4ccc(OC(C)C)cc43)cc2)nc1	EC50 [1]: 135 nM
5.3	CCS(=O)(=O)c1ccc(CC(=O)Nc2ccc(CCN3CCCc4ccc(C=C(C)C)cc43)cc2)cc1	–
6.6	CCS(=O)(=O)c1ccc(CC(=O)Nc2ccc(CCN3CCCc4ccc(OC5COC5)cc43)cc2)cc1	–
